Activity calls are given as the source filed them. The rule behind the calls is not given here.

In data set [1] the test system is L6. The data set is described as follows: Cytotoxicity against rat L6 cells after 70 hrs by alamar blue assay. The format is cell-based. As to conditions: L6, 70 h.
Data set [2] concerns Trypanosoma brucei. The data set is described as follows: Antitrypanosomal activity against bloodstream form of Trypanosoma brucei s427 after 72 hrs by MTT assay. The format is functional, organism-based. As to conditions: s427, 72 h. Background: Tetrazolium dyes change colour on reduction, which living cells bring about.
The test system of data set [3] is Trypanosoma brucei rhodesiense. The data set is described as follows: Antitrypanosomal activity against bloodstream form of Trypanosoma brucei rhodesiense STIB900 after 70 hrs by alamar blue assay. As to conditions: STIB900, 70 h. It counts as functional, organism-based. Background: Alamar Blue is a resazurin reagent that responds to reducing activity.
The test system of data set [4] is Trypanosoma brucei rhodesiense. The data set is described as follows: Antitrypanosomal activity against bloodstream form of Trypanosoma brucei rhodesiense STIB900 infected in NMRI mouse assessed as suppression of parasitemia level in mouse tail blood at 50 mg/kg, ip qd for 4 consecutive days measured 5 days post infection. Set-up: dose 50 mg/kg. It counts as functional, organism-based.

Data set [5] can be described thus: Chemical stability of the compound in 100 mM phosphate buffer at pH 7.4. It counts as physicochemical.
Data set [6] deals with Trypanosoma brucei rhodesiense. The data set is described as follows: Antitrypanosomal activity against bloodstream form of Trypanosoma brucei rhodesiense STIB900 infected in NMRI mouse assessed as suppression of parasitemia level in mouse tail blood at 5 mg/kg, ip qd for 4 consecutive days measured 5 days post infection. It counts as functional, organism-based. Set-up: dose 5 mg/kg.

The test system of data set [7] is Trypanosoma brucei rhodesiense. As to the kind of experiment: Antitrypanosomal activity against bloodstream form of Trypanosoma brucei rhodesiense STIB900 infected in NMRI mouse assessed as day of parasitemia relapse at 50 mg/kg, ip qd for 4 consecutive days. The format is functional.
Data set [8] concerns Trypanosoma brucei rhodesiense. The data set is described as follows: Antitrypanosomal activity against bloodstream form of Trypanosoma brucei rhodesiense STIB900 infected in NMRI mouse assessed as suppression of parasitemia level in mouse tail blood at 10 mg/kg, ip qd for 4 consecutive days measured 5 days post infection. It counts as functional, organism-based. Also on record: dose 10 mg/kg.

One may read the IC50 as the midpoint of a concentration-inhibition curve. Lower therefore signals greater potency in that assay. As for `CC(=O)Oc1cc(C)c2c(c1)C(C)=CC(C)(C)N2Cc1ccccc1`, the IC50 was determined as 48 µM in data set [1], 9.2 µM in data set [2] and 43 µM in data set [3].
In the same order, the values of `CC(=O)Oc1ccc2c(c1)C(C)=CC(C)(C)N2Cc1ccc(C(C)C)cc1` are 10 µM, 0.97 µM and 0.28 µM.
In the same order, the values of `CC(=O)Oc1ccc2c(c1)C(C)=CC(C)(C)N2Cc1ccc(F)c(F)c1` are 17 µM, 0.079 µM and 0.025 µM.
For the molecule `COc1cc(OC(C)=O)cc2c1N(Cc1ccccc1)C(C)(C)C=C2C`, in data set [2], the IC50 is > 100 µM.
In the case of `CC1=CC(C)(C)N(Cc2ccccc2)c2ccc(O)cc21.Cl`, the figures for the half-inhibitory concentration (IC50) in data set [1], in data set [2] and in data set [3] were 11 µM, 0.038 µM and 0.013 µM, respectively. For the same molecule, the outcome in data set [4] was Active. In addition, the Stability entry in data set [5] is “Unstable”.
With `CC1=CC(C)(C)N(Cc2ccc(F)c(F)c2)c2ccc(O)cc21`, the IC50 in data set [1] was determined as 11 µM; in data set [2], 0.068 µM; in data set [3], 0.051 µM.
In the same order, the values of `CC(=O)Oc1cc2c(cc1Cl)N(Cc1ccccc1)C(C)(C)C=C2C` are 22 µM, 0.22 µM and 0.042 µM.
In the same order, the values of `CC(=O)Oc1ccc2c(c1)C(c1ccccc1)=CC(C)(C)N2Cc1ccccc1` are 49 µM, 20 µM and 4.5 µM.
`N=C(N)c1ccc(OCCCCCOc2ccc(C(=N)N)cc2)cc1` [PENTAMIDINE]: the half-maximal inhibitory concentration (IC50) was determined as 25 µM in data set [1], 0.012 µM in data set [2] and 0.0013 µM in data set [3]. Also, the outcome in data set [6] was Active.
As for `CC(=O)Oc1c(Cl)cc2c(c1Cl)C(C)=CC(C)(C)N2Cc1ccccc1`, the IC50 in data set [1] turned out to be 110 µM; in data set [2], 0.49 µM; in data set [3], 0.072 µM.
`COc1ccccc1CN1c2ccc(OC(C)=O)cc2C(C)=CC1(C)C`: the 50% inhibitory concentration (IC50) was found to be 17 µM in data set [1], 0.041 µM in data set [2] and 0.011 µM in data set [3]. Besides, the result in data set [4] was Active.
In turn, `Cc1ccc(C(=O)Nc2ccc(S(=O)(=O)O)c3cc(S(=O)(=O)O)cc(S(=O)(=O)O)c23)cc1NC(=O)c1cccc(NC(=O)Nc2cccc(C(=O)Nc3cc(C(=O)Nc4ccc(S(=O)(=O)O)c5cc(S(=O)(=O)O)cc(S(=O)(=O)O)c45)ccc3C)c2)c1` [SURAMIN] came in with an IC50 in data set [2] of 0.11 µM.
For `COc1ccccc1CN1c2ccc(O)cc2C(C)=CC1(C)C.Cl`, the IC50 in data set [1] was 12 µM; in data set [2], 0.045 µM; in data set [3] it was 0.014 µM. For the same molecule, the outcome in data set [4] was Active. In data set [5], the Stability result was “Unstable”.
Turning to `CC(=O)Oc1cc2c(cc1C)N(Cc1ccccc1)C(C)(C)C=C2C`, the IC50 in data set [2] was found to be 0.031 µM.
Regarding `CCOc1ccc2c(c1)C(C)=CC(C)(C)N2Cc1ccccc1`, the results for the half-maximal inhibitory concentration (IC50) in data set [1] and in data set [3] were 97 µM and 41 µM, respectively. Moreover, the outcome in data set [7] was inactive.
On to `CCOc1ccc2c(c1)C(C)=CC(C)(C)N2Cc1ccc(F)c(F)c1`, for which the values for the 50% inhibitory concentration (IC50) in data set [1] and in data set [3] were 90 µM and 140 µM, respectively. In addition, the result in data set [4] and in data set [7] was inactive.
For `N=C(N)c1ccc(/N=N/Nc2ccc(C(=N)N)cc2)cc1` [DIMINAZENE], the IC50 was 5 µM in data set [1] and 0.0058 µM in data set [3]. Further, the result in data set [8] was Active.
In the case of `CC(=O)Oc1cc2c(cc1-c1ccc(C(F)(F)F)cc1)N(Cc1ccccc1)C(C)(C)C=C2C`, the values for the IC50 in data set [1], in data set [2] and in data set [3] were > 190 µM, 15 µM and 9 µM, respectively.
`CC(=O)Oc1ccc2c(c1)C(C)=CC(C)(C)N2Cc1ccccc1`: the values for the IC50 in data set [1], in data set [2] and in data set [3] were 18 µM, 0.058 µM and 0.012 µM, respectively. Moreover, the Activity in data set [7] (route intraperitoneal) is 12.75 days.
